Measured values: PubChem BioAssay (NCI)
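Method: 48-hour compound exposure of cells in 96-well plates, five concentrations, linear interpolation of endpoints. GI50 = concentration required for 50% inhibition of growth. TGI: total growth inhibition.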

Tests used:
Assay in all cases: NCI anticancer screen, dose series, 48 h; in the data active = GI50 below about 0.43 µM; inactive = the rest
786-0 renal = tested on: 786-0 renal
A498 renal = tested on: A498 renal
A549 NSCLC = tested on: A549 NSCLC
ACHN renal = tested on: ACHN renal
CAKI-1 renal = tested on: CAKI-1 renal
CCRF-CEM leukemia = tested on: CCRF-CEM leukemia
COLO 205 colon = tested on: COLO 205 colon
DLD-1 colon = tested on: DLD-1 colon
DMS 114 small cell lung = tested on: DMS 114 small cell lung
DMS 273 small cell lung = tested on: DMS 273 small cell lung
EKVX NSCLC = tested on: EKVX NSCLC
HCC-2998 colon = tested on: HCC-2998 colon
HCT-116 colon = tested on: HCT-116 colon
HCT-15 colon = tested on: HCT-15 colon
HL-60(TB) leukemia = tested on: HL-60(TB) leukemia
HOP-62 NSCLC = tested on: HOP-62 NSCLC
HOP-92 NSCLC = tested on: HOP-92 NSCLC
HT29 colon = tested on: HT29 colon
IGROV1 ovarian = tested on: IGROV1 ovarian
K-562 leukemia = tested on: K-562 leukemia
KM12 colon = tested on: KM12 colon
KM20L2 colon = tested on: KM20L2 colon
LOX IMVI melanoma = tested on: LOX IMVI melanoma
LXFL 529 NSCLC = tested on: LXFL 529 NSCLC
M14 melanoma = tested on: M14 melanoma
M19-MEL melanoma = tested on: M19-MEL melanoma
MALME-3M melanoma = tested on: MALME-3M melanoma
MOLT-4 leukemia = tested on: MOLT-4 leukemia
NCI-H226 lung = tested on: NCI-H226 lung
NCI-H23 lung = tested on: NCI-H23 lung
NCI-H460 lung = tested on: NCI-H460 lung
NCI-H522 lung = tested on: NCI-H522 lung
OVCAR-3 ovarian = tested on: OVCAR-3 ovarian
OVCAR-4 ovarian = tested on: OVCAR-4 ovarian
OVCAR-5 ovarian = tested on: OVCAR-5 ovarian
OVCAR-8 ovarian = tested on: OVCAR-8 ovarian
RPMI-8226 leukemia = tested on: RPMI-8226 leukemia
SF-268 CNS = tested on: SF-268 CNS
SF-295 CNS = tested on: SF-295 CNS
SF-539 CNS = tested on: SF-539 CNS
SK-MEL-2 melanoma = tested on: SK-MEL-2 melanoma
SK-MEL-28 melanoma = tested on: SK-MEL-28 melanoma
SK-MEL-5 melanoma = tested on: SK-MEL-5 melanoma
SK-OV-3 ovarian = tested on: SK-OV-3 ovarian
SN12C renal = tested on: SN12C renal
SNB-19 CNS = tested on: SNB-19 CNS
SNB-75 CNS = tested on: SNB-75 CNS
SW-620 colon = tested on: SW-620 colon
TK-10 renal = tested on: TK-10 renal
U251 CNS = tested on: U251 CNS
UACC-257 melanoma = tested on: UACC-257 melanoma
UACC-62 melanoma = tested on: UACC-62 melanoma
UO-31 renal = tested on: UO-31 renal
RXF 393 renal = tested on: RXF 393 renal
SNB-78 CNS = tested on: SNB-78 CNS
SR leukemia = tested on: SR leukemia

[Cl-].[Nd+3].[O-]/N=C(\c1ccccc1)c1ccccn1.[O-]/N=C(\c1ccccc1)c1ccccn1.[O-]/N=C(\c1ccccc1)c1ccccn1
82.7 µM: TGI (NCI-H23 lung)
97 µM: TGI (DMS 273 small cell lung)
80.1 µM: TGI (NCI-H522 lung)
53.6 µM: TGI (HL-60(TB) leukemia)
69.8 µM: TGI (M19-MEL melanoma)
90.2 µM: TGI (MOLT-4 leukemia)
55.4 µM: TGI (SK-MEL-5 melanoma)
66.4 µM: TGI (SK-MEL-2 melanoma)
inactive: GI50 (786-0 renal) 31 µM | GI50 (A498 renal) 24.5 µM | GI50 (A549 NSCLC) 33.7 µM | GI50 (ACHN renal) 37.8 µM | GI50 (CAKI-1 renal) 30.6 µM | GI50 (CCRF-CEM leukemia) 16.4 µM | GI50 (COLO 205 colon) 31.2 µM | GI50 (DLD-1 colon) 39.6 µM | GI50 (DMS 114 small cell lung) 24.6 µM | GI50 (DMS 273 small cell lung) 26.9 µM | GI50 (EKVX NSCLC) 31.1 µM | GI50 (HCC-2998 colon) 36.3 µM | GI50 (HCT-116 colon) 37.6 µM | GI50 (HCT-15 colon) 31.7 µM | GI50 (HL-60(TB) leukemia) 16.5 µM | GI50 (HOP-62 NSCLC) 24.9 µM | GI50 (HOP-92 NSCLC) 25 µM | GI50 (HT29 colon) 54.2 µM | GI50 (IGROV1 ovarian) 30.6 µM | GI50 (K-562 leukemia) 34.4 µM | GI50 (KM12 colon) 38.8 µM | GI50 (KM20L2 colon) 39.1 µM | GI50 (LOX IMVI melanoma) 22.6 µM | GI50 (LXFL 529 NSCLC) 40.4 µM | GI50 (M14 melanoma) 23 µM | GI50 (M19-MEL melanoma) 25 µM | GI50 (MALME-3M melanoma) 30 µM | GI50 (MOLT-4 leukemia) 23.8 µM | GI50 (NCI-H226 lung) 13.3 µM | GI50 (NCI-H23 lung) 30.3 µM | GI50 (NCI-H460 lung) 29.4 µM | GI50 (NCI-H522 lung) 23 µM | GI50 (OVCAR-3 ovarian) 17.5 µM | GI50 (OVCAR-4 ovarian) 45.1 µM | GI50 (OVCAR-5 ovarian) 31.2 µM | GI50 (OVCAR-8 ovarian) 34.1 µM | GI50 (RPMI-8226 leukemia) 39.2 µM | GI50 (SF-268 CNS) 24.8 µM | GI50 (SF-295 CNS) 22.3 µM | GI50 (SF-539 CNS) 23.8 µM | GI50 (SK-MEL-2 melanoma) 28 µM | GI50 (SK-MEL-28 melanoma) 27.3 µM | GI50 (SK-MEL-5 melanoma) 22.6 µM | GI50 (SK-OV-3 ovarian) 37.1 µM | GI50 (SN12C renal) 37.2 µM | GI50 (SNB-19 CNS) 35.9 µM | GI50 (SNB-75 CNS) 3.78 µM | GI50 (SW-620 colon) 41.1 µM | GI50 (TK-10 renal) 37.5 µM | GI50 (U251 CNS) 38.9 µM | GI50 (UACC-257 melanoma) 33.6 µM | GI50 (UACC-62 melanoma) 28.7 µM | GI50 (UO-31 renal) 19.8 µM
45.6 µM: TGI (NCI-H226 lung)
85.1 µM: TGI (SF-268 CNS) | TGI (SK-MEL-28 melanoma)
96.9 µM: TGI (MALME-3M melanoma)
99.3 µM: TGI (UACC-257 melanoma)
45.8 µM: TGI (M14 melanoma)
95.3 µM: TGI (CCRF-CEM leukemia)
82.2 µM: TGI (786-0 renal)
56.7 µM: TGI (UO-31 renal)
> 100 µM: TGI (A498 renal) | TGI (A549 NSCLC) | TGI (ACHN renal) | TGI (CAKI-1 renal) | TGI (COLO 205 colon) | TGI (DLD-1 colon) | TGI (EKVX NSCLC) | TGI (HCC-2998 colon) | TGI (HCT-116 colon) | TGI (HCT-15 colon) | TGI (HOP-62 NSCLC) | TGI (HT29 colon) | TGI (IGROV1 ovarian) | TGI (K-562 leukemia) | TGI (KM12 colon) | TGI (KM20L2 colon) | TGI (LXFL 529 NSCLC) | TGI (NCI-H460 lung) | TGI (OVCAR-3 ovarian) | TGI (OVCAR-4 ovarian) | TGI (OVCAR-5 ovarian) | TGI (OVCAR-8 ovarian) | TGI (RPMI-8226 leukemia) | TGI (SF-295 CNS) | TGI (SK-OV-3 ovarian) | TGI (SN12C renal) | TGI (SNB-19 CNS) | TGI (SW-620 colon) | TGI (TK-10 renal) | TGI (U251 CNS) | TGI (UACC-62 melanoma)
98.3 µM: TGI (HOP-92 NSCLC)
62.2 µM: TGI (SF-539 CNS)
58 µM: TGI (LOX IMVI melanoma)
17.2 µM: TGI (SNB-75 CNS)
79 µM: TGI (DMS 114 small cell lung)

COc1cc2ccc1NC(=O)N1CCN(CC1)C(=O)Nc1ccc(cc1OC)-c1ccc(c(OC)c1)NC(=O)N1CCN(CC1)C(=O)Nc1ccc-2cc1OC
> 100 µM: TGI (A498 renal) | TGI (ACHN renal) | TGI (CCRF-CEM leukemia) | TGI (COLO 205 colon) | TGI (DMS 114 small cell lung) | TGI (HCC-2998 colon) | TGI (HCT-116 colon) | TGI (HOP-62 NSCLC) | TGI (HOP-92 NSCLC) | TGI (HT29 colon) | TGI (IGROV1 ovarian) | TGI (K-562 leukemia) | TGI (KM12 colon) | TGI (LXFL 529 NSCLC) | TGI (M14 melanoma) | TGI (M19-MEL melanoma) | TGI (MOLT-4 leukemia) | TGI (NCI-H23 lung) | TGI (NCI-H460 lung) | TGI (NCI-H522 lung) | TGI (OVCAR-3 ovarian) | TGI (OVCAR-4 ovarian) | TGI (RPMI-8226 leukemia) | TGI (RXF 393 renal) | TGI (SF-268 CNS) | TGI (SF-295 CNS) | TGI (SF-539 CNS) | TGI (SK-MEL-2 melanoma) | TGI (SK-MEL-28 melanoma) | TGI (SK-OV-3 ovarian) | TGI (SNB-19 CNS) | TGI (SNB-75 CNS) | TGI (SNB-78 CNS) | TGI (SR leukemia) | TGI (UACC-257 melanoma) | TGI (UACC-62 melanoma) | TGI (UO-31 renal)

O=C(N/N=C/c1cc(Cl)cc(Cl)c1[O-])c1ccccc1O.O=C(N/N=C/c1cc(Cl)cc(Cl)c1[O-])c1ccccc1O.[Cl-].[Fe+3]
69.8 µM: TGI (SF-268 CNS)
23.7 µM: TGI (RXF 393 renal)
48.4 µM: TGI (IGROV1 ovarian)
31.7 µM: TGI (UO-31 renal)
26.6 µM: TGI (OVCAR-4 ovarian)
27 µM: TGI (OVCAR-3 ovarian)
26 µM: TGI (OVCAR-5 ovarian)
31.5 µM: TGI (NCI-H522 lung)
35.3 µM: TGI (M14 melanoma)
34.8 µM: TGI (HT29 colon)
22.7 µM: TGI (SNB-19 CNS)
88.3 µM: TGI (EKVX NSCLC)
20.5 µM: TGI (NCI-H226 lung)
37.9 µM: TGI (KM12 colon)
> 100 µM: TGI (CAKI-1 renal) | TGI (TK-10 renal)
30.9 µM: TGI (LOX IMVI melanoma)
37.1 µM: TGI (SK-MEL-2 melanoma)
inactive: GI50 (A549 NSCLC) 10.2 µM | GI50 (COLO 205 colon) 19.4 µM | GI50 (EKVX NSCLC) 29.3 µM | GI50 (HCT-116 colon) 5.78 µM | GI50 (HOP-92 NSCLC) 1.95 µM | GI50 (KM12 colon) 12.6 µM | GI50 (KM20L2 colon) 10.7 µM | GI50 (NCI-H23 lung) 7.73 µM | GI50 (SF-539 CNS) 10.5 µM | GI50 (SK-MEL-2 melanoma) 17.1 µM
25.3 µM: TGI (SR leukemia)
24 µM: TGI (KM20L2 colon)
36.2 µM: TGI (HOP-62 NSCLC)
7.18 µM: TGI (HOP-92 NSCLC)
23.5 µM: TGI (HCC-2998 colon)
18.9 µM: TGI (HCT-116 colon)
44.4 µM: TGI (COLO 205 colon)
63.8 µM: TGI (A549 NSCLC)
51.2 µM: TGI (UACC-257 melanoma)
38.5 µM: TGI (ACHN renal)
27.9 µM: TGI (SF-539 CNS)
33.6 µM: TGI (UACC-62 melanoma)
25.7 µM: TGI (NCI-H23 lung)
29.2 µM: TGI (SK-OV-3 ovarian)
25.9 µM: TGI (OVCAR-8 ovarian)
18.7 µM: TGI (HCT-15 colon)
36 µM: TGI (NCI-H460 lung)
5.22 µM: TGI (HL-60(TB) leukemia)
29.9 µM: TGI (SW-620 colon)
60.4 µM: TGI (SNB-75 CNS)
22.4 µM: TGI (SF-295 CNS)
